Reference: publication PMC9231376, “Membrane Permeability and Aqueous Stability Study of Linear and Cyclic Diarylheptanoids from Corylus maxima” (Pharmaceutics, 2022)
Values joined by “and” are separate entries in the source; they are usually repeats but may differ in a detail not shown here. Identical values can stand only once.

Legend:
[1] = Parallel artificial membrane permeability assay for the gastrointestinal tract (PAMPA-GI); assay type: in vitro ADME; conditions: for Papp at 4 h, 100 µM: PAMPA, read-out: log Pe PAMPA-GI (converted); for log Pe PAMPA-GI: donor pH 6.8, acceptor pH 7.4, 37 °C, 4 h, n = 9, Pe in cm/s, n.d. = not detected in the acceptor phase
Description: (§1) The test solutions were prepared with dimethyl sulfoxide (DMSO) at the concentration of 10.0 mM. These were diluted with phosphate buffers (pH = 7.4 for the PAMPA-BBB and pH = 6.8 for the PAMPA-GI) to obtain the donor solutions (297.0 μL buffer + 3.0 μL DMSO solution) and filtered through Phenex-RC 15 mm, 0.2 μm syringe filters (Gen-Lab Ltd., Budapest, Hungary). A parallel artificial membrane permeability assay (PAMPA) system was used to determine the effective permeability (Pe) for the compounds of interest. Each well of the top plate (96-well polycarbonate-based filter donor plates (Multiscreen™-IP, MAIPN4510, pore size 0.45 μm; Merck, Darmstadt, Germany) was coated with 5 μL of porcine polar brain lipid extract (PBLE) solution (16.0 mg PBLE + 8.0 mg cholesterol dissolved in 600.0 μL n-dodecane) for the PAMPA-BBB and with 5 μL of the mixture of 8.0 mg phosphatidylcholine + 4.0 mg cholesterol dissolved in 300.0 μL n-dodecane for PAMPA-GI. Thereafter, 150.0 μL of the filtrate was placed on the membrane. The bottom plate (96-well PTFE acceptor plates (MultiScreen Acceptor plate, MSSACCEPTOR; Millipore, Burlington, MA, USA)), was filled with a 300.0 μL buffer solution (0.01 M PBS buffer, pH = 7.4). The donor and acceptor plates were fit, and then the sandwich system was incubated at 37 °C for 4 h in a Stat-Fax 2200. After the incubation the PAMPA plates were separated and the compound concentrations in the donor (CD(t)) and acceptor (CA(t)) solutions, as well as in the donor solution at the zero time point (CD(0)) were determined by UHPLC-DAD. The effective permeability and the membrane retention in the PAMPA-BBB (1) and the PAMPA GI (2) experiments were calculated by the following equations [12]:(1) Pe=−2.303/A(t−τSS)·(VA·VD/VA+VD)·lg[1−(VA+VD/(1−MR)·VD)×(CA(t)/CD(0))] (2) Pe=−2.303/A(t−τSS))·(1/1+ra)·lg[−ra+(1+ra/1−MR)×(CD(t)/CD(0))] where Pe is the effective permeability coefficient (cm/s), A is the filter area (0.24 cm^2), VD and VA are the volumes in the donor (0.15 cm^3) and acceptor phases (0.30 cm^3), t is the incubation time (s), τSS is the time (s) to reach steady-state (240 s), CD(t) is the concentration (mol/cm^3) of the compound in the donor phase at time t, CD(0) is the concentration (mol/cm^3) of the compound in the donor phase at time 0, MR is the estimated membrane retention factor (the estimated mole fraction of solute lost to the membrane) and ra is the sink asymmetry ratio (gradient-pH-induced), defined as (3) ra=VD/VA×Pe(A→D)/Pe(D→A) (4) MR=1−CD(t)/CD(0)−VA/VDCA(t)/CD(0)
(§2) All experiments were performed in triplicates on three consecutive days (n = 9), caffeine standard was used as positive, while rutin as negative control. ClogP values were calculated by ChemAxon Marvin 22.3.

[2] = Determination of aqueous stability (UHPLC-DAD, 4 h at 37 °C); assay type: physicochemical; conditions: for Aqueous stability at all three investigated pH values (in words): pH 1.2, 6.8 and 7.4, no notable change in peak areas, no degradation products detected; for Aqueous stability pH = 1.2: compound concentration after 4 h of incubation compared to the initial value: pH 1.2 simulated gastric fluid, n = 3; for Aqueous stability pH = 6.8: compound concentration after 4 h of incubation compared to the initial value: pH 6.8 simulated intestinal fluid; for Aqueous stability pH = 6.8: compound concentration after 4 h of incubation compared to the initial value / Aqueous stability pH = 7.4: compound concentration after 4 h of incubation compared to the initial value: n = 3, * p < 0.05 vs initial; for Aqueous stability pH = 7.4: compound concentration after 4 h of incubation compared to the initial value: pH 7.4 PBS; for Significance of decrease in compound concentration (in words): paired-sample t-test, p < 0.05, pH 1.2, 6.8, 7.4
Description: The aqueous solutions and buffers were prepared as follows: pH = 1.2, 1.0 g NaCl and 3.5 mL HCl dissolved in distilled water to achieve the final volume of 500.0 mL; pH = 6.8, 20.2 g Na2HPO4·7H2O and 3.4 g NaH2PO4·H2O dissolved in distilled water to achieve the final volume of 1000.0 mL, pH adjustment with 0.5 M NaOH or 0.5 M HCl; pH = 7.4, one PBS tablet (phosphate buffered saline, pH 7.4; Sigma Aldrich, St. Louis, MO, USA) dissolved in 200.0 mL of distilled water.
With the aforementioned buffers, 10 mM dimethyl sulfoxide stock solutions of the isolated compounds were diluted 100-fold. […] For degradable compounds, the above-mentioned validated UHPLC-DAD method was used to examine the change in compound concentration. All experiments were performed in triplicates (n = 3).

[3] = Parallel artificial membrane permeability assay for the blood–brain barrier (PAMPA-BBB); assay type: in vitro ADME; conditions: for log Pe PAMPA-BBB: donor pH 7.4, acceptor pH 7.4, 37 °C, 4 h, n = 9, Pe in cm/s, n.d. = not detected in the acceptor phase
Description: as §1, §2

Papp at 4 h, 100 µM [1] | Aqueous stability at all three investigated pH values (in words) [2] | Aqueous stability pH = 1.2: compound concentration after 4 h of incubation compared to the initial value [2] | Aqueous stability pH = 6.8: compound concentration after 4 h of incubation compared to the initial value [2] | Aqueous stability pH = 7.4: compound concentration after 4 h of incubation compared to the initial value [2] | log Pe PAMPA-GI [1] | log Pe PAMPA-BBB [3] | Aqueous stability pH = 7.4: compound concentration after 4 h of incubation compared to the initial value ([2]; listed as 2) | Papp at 4 h, 100 µM ([3]; PAMPA, pH 7.4, read-out: log Pe PAMPA-BBB (converted)) | SMILES | Significance of decrease in compound concentration (in words) [2]
3.24 ×10⁻⁶ cm/s | stable | 102.75 ± 1.09% | 101.51 ± 1.75% | 103.28 ± 1.81% |  |  |  |  | O=C1CCc2ccc(O)c(c2)-c2cc(ccc2O)C[C@H](O)[C@H](O)[C@H]1O [carpinontriol B (9), carpinontriol B] | 
 | stable | 99.97 ± 1.01% | 102.68 ± 2.45% | 100.92 ± 2.02% | not detected in the acceptor phase | not detected in the acceptor phase |  |  | COc1c2cc(c(OC)c1O)Oc1ccc(cc1)CCC(=O)C[C@H](O)/C=C\2 [giffonin F (8), giffonin F] | 
 |  | 99.63 ± 0.37% |  | 83.80 ± 2.41 * % | not detected in the acceptor phase | not detected in the acceptor phase |  |  | O=C(/C=C/CCc1ccc(O)c(O)c1)CCc1ccc(O)c(O)c1 [hirsutenone (3), hirsutenone] | decreased significantly only at pH 7.4
 |  | 98.67 ± 2.43% | 91.22 ± 3.01 * % | 59.93 ± 2.85 * % | not detected in the acceptor phase | not detected in the acceptor phase | 59.93 ± 2.85% |  | O=C(CCc1ccc(O)c(O)c1)C[C@H](CCc1ccc(O)c(O)c1)O[C@@H]1OC[C@@H](O)[C@H](O)[C@H]1O [oregonin (2), oregonin] | significant decrease both at pH 6.8 and 7.4
12 ×10⁻⁶ cm/s |  | 99.45 ± 1.05% | 94.98 ± 2.10% and 94.98 ± 2.10 * % | 90.40 ± 1.52% and 90.40 ± 1.52 * % | greater than −5.0 | > −6.0 |  | 5.75 ×10⁻⁶ cm/s | O=C(/C=C/CCc1ccc(O)cc1)CCc1ccc(O)cc1 [platyphyllenone (5), platyphyllenone] | significant decrease both at pH 6.8 and 7.4

SMILES | Papp at 4 h, 100 µM [1] | Aqueous stability at all three investigated pH values (in words) [2] | Aqueous stability pH = 1.2: compound concentration after 4 h of incubation compared to the initial value [2] | Aqueous stability pH = 6.8: compound concentration after 4 h of incubation compared to the initial value [2] | Aqueous stability pH = 7.4: compound concentration after 4 h of incubation compared to the initial value [2] | log Pe PAMPA-GI [1] | log Pe PAMPA-BBB [3] | Aqueous stability pH = 7.4: compound concentration after 4 h of incubation compared to the initial value ([2]; listed as 2) | Papp at 4 h, 100 µM ([3]; PAMPA, pH 7.4, read-out: log Pe PAMPA-BBB (converted)) | Significance of decrease in compound concentration (in words) [2]
C[C@@H]1O[C@@H](Oc2c(-c3ccc(O)c(O)c3)oc3cc(O)cc(O)c3c2=O)[C@H](O)[C@H](O)[C@H]1O [quercitrin (10), quercitrin] |  | stable | 100.91 ± 0.53% | 102.35 ± 1.85% | 100.75 ± 0.96% | not detected in the acceptor phase | not detected in the acceptor phase |  |  | 
